Measurements published in patent publication US20180141939A1, “SOLID FORMS OF A BET INHIBITOR” (Gilead Sciences, Inc., priority 2016, published 2018).
Structures can show the parent of a compound that is named as a salt.

How the values were obtained:
Type in all cases: physicochemical
[1] = Relative stability of solid forms (competitive slurries); conditions: for thermodynamic / physical stability of the solid form: statement in words
[2] = Kinetic aqueous solubility / solubility in water of salt and co-crystal forms
[3] = Aqueous vapor stress (high humidity stress, about 85% RH), deliquescence; conditions: for deliquescence when stressed at about 85% RH: about 24 h where stated; for deliquescence at elevated RH: elevated relative humidity
Procedure: Crystalline forms of Compound I were analyzed by at least one of X-ray powder diffraction (XRPD), differential scanning calorimetry (DSC), thermogravimetric analysis (TGA), dynamic vapor sorption (DVS), solution proton nuclear magnetic resonance spectroscopy (^1H NMR), KF titration, and aqueous vapor stress experiments. XRPD patterns of Compound I were collected with a PANalytical X'Pert PRO MPD diffractometer using mostly the following experimental setting: 45 kV, 40 mA, Kα1=1.5406 Å, scan range 2-40° 2θ, step size 0.0167° 2θ. The DSC analysis was conducted on a TA Instruments Q2000 differential scanning calorimeter using 10° C./min heating rate over the 20° C. to 250° C. temperature range or above. The TGA analysis was conducted on a TA Instruments 2950 thermogravimetric analyzer using a 10° C./min heating rate over the 20° C. to 350° C. temperature range. ^1H NMR spectra were acquired with an Agilent DD2-400 spectrometer using DMSO-d6 with tetramethylsilane (TMS). KF analysis was performed using a Mettler Toledo DL39 Karl Fischer titrator with a Stromboli drying oven attachment set at about 110° C. Aqueous vapor stress experiments were conducted by placing a sample in a 85% RH jar for a specified duration.

[4] = Dynamic vapor sorption (DVS) moisture uptake; conditions: for moisture uptake (DVS): at about 90% RH; for hygroscopicity (DVS analysis): classification in words

Structure (SMILES) | kinetic aqueous solubility [2] | deliquescence when stressed at about 85% RH [3] | also measured
Cc1noc(C)c1-c1cc(C(O)(c2ccccn2)c2ccccn2)c2nc(C3CC3)[nH]c2c1 [Compound I Form II, (2-cyclopropyl-6-(3,5-dimethylisoxazol-4-yl)-1H-benzo[d]imidazol-4-yl)di(pyridin-2-yl)methanol] | – | – | thermodynamic / physical stability of the solid form [1]: unstable mono-IPA solvate that may convert to Compound I Form I at ambient conditions
Cc1noc(C)c1-c1cc(C(O)(c2ccccn2)c2ccccn2)c2nc(C3CC3)[nH]c2c1 [Compound I sulfate Material B, (2-cyclopropyl-6-(3,5-dimethylisoxazol-4-yl)-1H-benzo[d]imidazol-4-yl)di(pyridin-2-yl)methanol] | about 4 mg/mL | no evidence of deliquescence | –
Cc1noc(C)c1-c1cc(C(O)(c2ccccn2)c2ccccn2)c2nc(C3CC3)[nH]c2c1 [Compound I Form I, (2-cyclopropyl-6-(3,5-dimethylisoxazol-4-yl)-1H-benzo[d]imidazol-4-yl)di(pyridin-2-yl)methanol] | – | – | moisture uptake (DVS) [4]: about 0.4%; hygroscopicity (DVS analysis) [4]: slightly hygroscopic; thermodynamic / physical stability of the solid form [1]: most thermodynamically stable form of Compound I
Cc1noc(C)c1-c1cc(C(O)(c2ccccn2)c2ccccn2)c2nc(C3CC3)[nH]c2c1 [Compound I phosphate Form IV, (2-cyclopropyl-6-(3,5-dimethylisoxazol-4-yl)-1H-benzo[d]imidazol-4-yl)di(pyridin-2-yl)methanol] | – | – | relative stability in competitive slurries with Compound I phosphate Form I ([1]; MeOH/EtOAc solvent system): complete conversion of Compound I phosphate Form IV to Compound I phosphate Form I
Cc1noc(C)c1-c1cc(C(O)(c2ccccn2)c2ccccn2)c2nc(C3CC3)[nH]c2c1 [Compound I phosphate Form V, (2-cyclopropyl-6-(3,5-dimethylisoxazol-4-yl)-1H-benzo[d]imidazol-4-yl)di(pyridin-2-yl)methanol] | – | – | relative stability in competitive slurries with Compound I phosphate Form I ([1]; MeOH/EtOAc solvent system): complete conversion of Compound I phosphate Form V to Compound I phosphate Form I
Cc1noc(C)c1-c1cc(C(O)(c2ccccn2)c2ccccn2)c2nc(C3CC3)[nH]c2c1 [Compound I napsylate Material A, (2-cyclopropyl-6-(3,5-dimethylisoxazol-4-yl)-1H-benzo[d]imidazol-4-yl)di(pyridin-2-yl)methanol] | – | does not deliquesce | –
Cc1noc(C)c1-c1cc(C(O)(c2ccccn2)c2ccccn2)c2nc(C3CC3)[nH]c2c1 [Compound I mesylate Material A, (2-cyclopropyl-6-(3,5-dimethylisoxazol-4-yl)-1H-benzo[d]imidazol-4-yl)di(pyridin-2-yl)methanol] | about 5 mg/mL | – | deliquescence at elevated RH [3]: shows evidence of deliquescence
Cc1noc(C)c1-c1cc(C(O)(c2ccccn2)c2ccccn2)c2nc(C3CC3)[nH]c2c1 [Compound I gentisate Material A, (2-cyclopropyl-6-(3,5-dimethylisoxazol-4-yl)-1H-benzo[d]imidazol-4-yl)di(pyridin-2-yl)methanol] | – | does not deliquesce | –
Cc1noc(C)c1-c1cc(C(O)(c2ccccn2)c2ccccn2)c2nc(C3CC3)[nH]c2c1 [Compound I xinafoate Form I, (2-cyclopropyl-6-(3,5-dimethylisoxazol-4-yl)-1H-benzo[d]imidazol-4-yl)di(pyridin-2-yl)methanol] | – | does not deliquesce | –
Cc1noc(C)c1-c1cc(C(O)(c2ccccn2)c2ccccn2)c2nc(C3CC3)[nH]c2c1 [Compound I HCl Material B, (2-cyclopropyl-6-(3,5-dimethylisoxazol-4-yl)-1H-benzo[d]imidazol-4-yl)di(pyridin-2-yl)methanol] | about 6 mg/mL | evidence of deliquescence | –
Cc1noc(C)c1-c1cc(C(O)(c2ccccn2)c2ccccn2)c2nc(C3CC3)[nH]c2c1 [Compound I tartrate Material A, (2-cyclopropyl-6-(3,5-dimethylisoxazol-4-yl)-1H-benzo[d]imidazol-4-yl)di(pyridin-2-yl)methanol] | about 15 mg/mL | does not deliquesce | –
Cc1noc(C)c1-c1cc(C(O)(c2ccccn2)c2ccccn2)c2nc(C3CC3)[nH]c2c1 [Compound I tosylate Form I, (2-cyclopropyl-6-(3,5-dimethylisoxazol-4-yl)-1H-benzo[d]imidazol-4-yl)di(pyridin-2-yl)methanol] | about 3 mg/mL | does not show any evidence of deliquescence | –
Cc1noc(C)c1-c1cc(C(O)(c2ccccn2)c2ccccn2)c2nc(C3CC3)[nH]c2c1 [mixture of Compound I sulfate Material A and Compound I sulf] [(2-cyclopropyl-6-(3,5-dimethylisoxazol-4-yl)-1H-benzo[d]imidazol-4-yl)di(pyridin-2-yl)methanol] | about 4 mg/mL | – | –
Cc1noc(C)c1-c1cc(C(O)(c2ccccn2)c2ccccn2)c2nc(C3CC3)[nH]c2c1 [Compound I sulfate Material A, (2-cyclopropyl-6-(3,5-dimethylisoxazol-4-yl)-1H-benzo[d]imidazol-4-yl)di(pyridin-2-yl)methanol] | about 4 mg/mL | no evidence of deliquescence | –
Cc1noc(C)c1-c1cc(C(O)(c2ccccn2)c2ccccn2)c2nc(C3CC3)[nH]c2c1 [Compound I mesylate Material C, (2-cyclopropyl-6-(3,5-dimethylisoxazol-4-yl)-1H-benzo[d]imidazol-4-yl)di(pyridin-2-yl)methanol] | about 13 mg/mL | – | deliquescence at elevated RH [3]: a tendency to deliquesce
Cc1noc(C)c1-c1cc(C(O)(c2ccccn2)c2ccccn2)c2nc(C3CC3)[nH]c2c1 [Compound I phosphate Form II, (2-cyclopropyl-6-(3,5-dimethylisoxazol-4-yl)-1H-benzo[d]imidazol-4-yl)di(pyridin-2-yl)methanol] | – | – | hygroscopicity (DVS analysis) [4]: moderately hygroscopic; relative stability in competitive slurries with Compound I phosphate Form I ([1]; MeOH/IPA, MeOH/EtOAc or MeOH/IPAc, overnight slurry at RT): less stable than Compound I phosphate Form I at ambient conditions
Cc1noc(C)c1-c1cc(C(O)(c2ccccn2)c2ccccn2)c2nc(C3CC3)[nH]c2c1 [Compound I phosphate Form III, (2-cyclopropyl-6-(3,5-dimethylisoxazol-4-yl)-1H-benzo[d]imidazol-4-yl)di(pyridin-2-yl)methanol] | – | – | solubility ([2]; water): ~6000 µg/mL; moisture uptake (DVS) [4]: about 0.7%; hygroscopicity (DVS analysis) [4]: slightly hygroscopic
Cc1noc(C)c1-c1cc(C(O)(c2ccccn2)c2ccccn2)c2nc(C3CC3)[nH]c2c1 [Compound I besylate Material A, (2-cyclopropyl-6-(3,5-dimethylisoxazol-4-yl)-1H-benzo[d]imidazol-4-yl)di(pyridin-2-yl)methanol] | about 1 mg/mL | does not show any signs of deliquescence | –
Cc1noc(C)c1-c1cc(C(O)(c2ccccn2)c2ccccn2)c2nc(C3CC3)[nH]c2c1 [Compound I mesylate Material G, (2-cyclopropyl-6-(3,5-dimethylisoxazol-4-yl)-1H-benzo[d]imidazol-4-yl)di(pyridin-2-yl)methanol] | – | – | moisture uptake (DVS) [4]: about 25%; hygroscopicity (DVS analysis) [4]: very hygroscopic
Cc1noc(C)c1-c1cc(C(O)(c2ccccn2)c2ccccn2)c2nc(C3CC3)[nH]c2c1 [Compound I edisylate Material A, (2-cyclopropyl-6-(3,5-dimethylisoxazol-4-yl)-1H-benzo[d]imidazol-4-yl)di(pyridin-2-yl)methanol] | about 1 mg/mL | does not show any signs of deliquescence | –
